Experimental findings from patent US11912650B2, “Bakuchiol derivatives, pharmaceutically acceptable salts thereof, and preparation method and use of the same” (priority 2020, dated 2024) are described below.

Data set [1] has as its system E. coli ATCC25922. As to the kind of experiment: Antibacterial activity assay (broth dilution MIC). It is filed as cell-based. The following applies: Escherichia coli, 37° C., 24 h, compounds 38, 44-45, 58-61, 63-64 with 0.05% Tween 80. On the procedure:
(§1) Antibacterial activity assay. The antibacterial activities of all the compounds were determined according to a broth dilution method specified in Clinical and Laboratory Standards Institute (CLSI) guidelines. Bacterial cells were inoculated on a Mueller-Hinton agar (MHA) plate for overnight culture, and the concentration of the bacterial cells was adjusted to about 1×10^6 colony-forming units (CFU)/mL with phosphate buffered saline (PBS). First, a 1000 μg/mL stock solution (a final concentration of dimethyl sulfoxide (DMSO) was ≤2%) was prepared by dissolving a sample in DMSO/H2O. Then, the stock solution was diluted with Mueller-Hinton Broth (MHB) to an initial concentration of 100 μg/mL, and the sample solution (100 μL) was subjected to two-fold gradient dilution with MHB in a 96-well plate, to obtain 100 μg/mL to 0.78 μg/mL serial dilutions. Then, a bacterial suspension (100 μL) was added to each well of the 96-well plate and mixed with the test sample solution (100 μL). Among them, test systems for compounds 38, 44-45, 58-61 and 63-64 contained 0.05% of Tween 80. Finally, the 96-well plate was incubated at 37° C. for 24 hours. Absorbances at 600 nm at 0 and 24 h were measured. An minimum inhibitory concentration (MIC) value was defined as the lowest concentration where no visible bacterial growth occurred. All experiments were carried out in at least two duplicates, and biological repeatability could be achieved.
In general terms: Dilution methods test growth across graded concentrations, often in twofold steps.

For data set [2], the system named is S. aureus ATCC29213. Put plainly: Antibacterial activity assay (broth dilution MIC). It is filed as cell-based. The settings on record: Staphylococcus aureus, 37° C., 24 h, compounds 38, 44-45, 58-61, 63-64 with 0.05% Tween 80. How it is done:
as §1

Data set [3] relates to MRSA N315. Put plainly: Antibacterial activity assay (broth dilution MIC). It counts as cell-based, methicillin-resistant Staphylococcus aureus. The settings on record: Staphylococcus aureus, 37° C., 24 h, compounds 38, 44-45, 58-61, 63-64 with 0.05% Tween 80. How it is done:
as §1

The subject of data set [4] is MRSA NCTC10442. Put plainly: Antibacterial activity assay (broth dilution MIC). It counts as cell-based, methicillin-resistant Staphylococcus aureus. The following applies: Staphylococcus aureus, 37° C., 24 h, compounds 38, 44-45, 58-61, 63-64 with 0.05% Tween 80. On the procedure:
as §1

Data set [5] deals with Gram-positive bacteria. Put plainly: Antibacterial activity against Gram-positive bacteria (MIC summary). It is filed as cell-based. The settings on record: 24 h; summary of tables 1 and 2; read-out: minimum inhibitory concentration (MIC) against Gram-positive bacteria. On the procedure:
as §1

In data set [6] the test system is Gram-negative bacteria. As to the kind of experiment: Antibacterial activity against Gram-negative bacteria (MIC summary). The settings on record: 24 h; summary of tables 1 and 2. It is filed as cell-based. How it is done:
as §1

Data set [7] relates to rabbit red blood cells. As to the kind of experiment: Hemolytic activity assay. It counts as cell-based. On the procedure:
Hemolytic activity assay. Rabbit red blood cells were centrifuged at 2500 rpm for 3 minutes and then washed twice with PBS. Subsequently, a 8% (v/v) cell suspension was prepared by resuspending the rabbit red blood cells with PBS. A sample was first dissolved in DMSO or PBS (a final concentration of DMSO was ≤0.5%), and then diluted with PBS to prepare two-fold gradient dilutions (400 μg/mL to 3.125 μg/mL). The rabbit red blood cell suspension ([…]) was mixed with the two-fold gradient dilutions ([…]) of the sample. Then, the mixture was added to a sterile 96-well plate, incubated at 37° C. for 1 hour, and then centrifuged at 2500 rpm for 5 minutes. Among them, test systems for compounds 38, 44-45, 58-61 and 63-64 contained 0.05% of Tween 80. The supernatant (100 μL) was transferred to a new 96-well plate. Absorbance at 576 nm was measured using a Biotek multifunctional microplate reader. The positive control group was treated with a 2% Triton X-100 solution, and the negative control group was treated with PBS or 0.5% DMSO. The hemolytic activity was calculated by the following equation: % hemolytic activity=[(Abssample−Absnegative control)/(Abspositive control−Absnegative control)]×100. All experiments were carried out in at least two duplicates, and biological repeatability could be achieved.

In data set [8] the test system is mouse fibroblasts NCTC clone 929. Put plainly: Toxicity to mammalian cells (CCK-8). The settings on record: 100 μg/mL, 24 h. It counts as cell-based. How it is done:
Assay of toxicity to mammalian cells. The cytotoxicities of a compound to be tested to mouse fibroblasts NCTC clone 929, mouse corneal cells CM120 and human hepatocellular carcinoma cells Hep-G2 were evaluated by a CCK-8 method. Cells were inoculated to a 96-well plate according to the cell amount described in a CCK-8 kit (Beyotime, PRC) specification, and cultured at 37° C. with 5% CO2 for 24 h. Then, a specific concentration of the sample to be tested was added to each well. Inoculation was further performed at 37° C. in an incubator for 24 h. Finally, a CCK-8 solution having a final concentration of 10% was added to each well. Incubation was further performed in the incubator for 1.0 h before absorbance at 450 nm (OD450) of the solution was measured by a microplate reader. According to formula (2), the cytotoxicity of the sample to be tested could be obtained:
[formula] • Asample: absorbance of a well with cells, a CCK8 solution and a sample solution to be tested; • Ablank: absorbance of a well with a culture medium and a CCK8 solution but without cells; and • Ano sample: absorbance of a well with cells and a CCK8 solution but without a sample solution to be tested.

In data set [9] the test system is S. aureus ATCC29213. As to the kind of experiment: Mouse model of bacterial peritonitis (abdominal infection). It counts as in vivo. The settings on record: 58 5 mg/kg intravenously every 4 hours; vancomycin 20 mg/kg IP; 5 mice per group. On the procedure:
CD-1 mice (6-8 weeks, with an average weight of 25 g) were used as an abdominal infection model. First, the mice were injected with S. aureus ATCC29213 (OD600≈1.0) intraperitoneally, and the mice were randomized into three groups (5 mice per group). After 1 hour of infection, one group was dosed with 58 (5 mg/kg) intravenously for treatment, once every 4 hours; and meanwhile, one group dosed with vancomycin (20 mg/kg, IP) was used as a positive control group, and the other group dosed with a 0.9% sodium chloride injection was used as a blank control group. After two days of treatment, the survival rate of the mice was investigated.

Data set [10] can be described thus: Pharmacokinetic characteristics in mice. It counts as in vivo.
The test system of data set [11] is S. aureus ATCC29213. Put plainly: Evaluation of development tendency of drug resistance. It counts as cell-based. The settings on record: S. aureus ATCC29213, passage at 0.5×MIC. On the procedure:
Evaluation of development tendency of drug resistance. Initial MIC values of compound 60, norfloxacin and gatifloxacin against S. aureus ATCC29213 were obtained by the above MIC determination method. Bacterial cells in a 96-well plate with a concentration of 0.5×MIC were taken out to prepare a bacterial suspension (about 1×10^6 CFU/mL) for the next MIC value determination. After incubating the sample at 37° C. for 24 hours, the change in the MIC value of each compound was measured. This experiment was carried out consecutively for 15 days.

Data set [12] relates to S. aureus ATCC29213. Put plainly: Mouse model of bacterial keratitis (cornea infection). It is filed as in vivo. The following applies: topical four times a day for three days; 0.5% compound 60, 5% vancomycin; P<0.01. How it is done:
Evaluation of in vivo efficacy. The experiment for evaluating in vivo antibacterial efficacy of animals had been approved by the Laboratory Animal Center of South China Agricultural University and was carried out according to the policy of the Ministry of Health of the People's Republic of China. Female C57BL6 mice (6-8 weeks, with an average weight of 20 g) were used as a bacterial keratitis model. In order to establish an immunosuppressive mouse model, cyclophosphamide (100 mg/kg) was injected intraperitoneally to mice three times 5 days before infection. Bacterial cells (S. aureus ATCC 29213) inoculated onto a Mueller Hinton agar (MHA) plate were suspended with PBS, and the concentration of the bacterial cells was adjusted to about 5×10^7 CFU/mL for corneal infection in mice. First, the mice were anesthetized. Then, the cornea of the left eye of the mouse was scratched with a sterile needle, and 15 μL of bacterial suspension was dropped on the injured cornea. One day after infection, the mice were randomized into three groups (5 mice per group). Three compounds (0.5% 60, 5% glucose solution and 5% vancomycin) were applied topically four times a day for consecutive three days, respectively. […] Viable bacteria were counted by an MHA plate counting method. the P value was calculated using SPSS 22.0 software and P≤0.05 was considered as being statistically significant.

Converted amounts (≈) assume the structure as drawn. Where a SMILES comes first, the peptide text is derived from it. The star is where a group is joined. X1 = C=C[C@](C)(/C=C/c1ccc(OCC(=O)*)cc1)CCC=C(C)C

In the case of `C=C[C@@](C)(/C=C/c1ccc(OCCCCN(CCCN(C)C)CCCN(C)C)cc1)CCC=C(C)C` [Compound 28], the MIC in [1] is 3.12 µg/mL (≈ 6.28 µM); in data set [2], 1.56 µg/mL (≈ 3.13 µM); in data set [3], 1.56 µg/mL (≈ 3.13 µM); in [4], 1.56 µg/mL (≈ 3.13 µM); in [5], 0.39 to 3.12 µg/mL (≈ 0.783 to 6.28 µM); in data set [6], 1.56 to 3.12 µg/mL (≈ 3.13 to 6.28 µM). In addition, in data set [7] (rabbit red blood cells, 37° C., 1 hour), the “HC50 (concentration necessary to lyse 50% rabbit red blood cells)” value was 112.9 ± 5.0 µg/mL.
In the case of `C=C[C@](C)(/C=C/c1ccc(OCC(=O)N[C@@H](CCCNC(=N)N)C(=O)N[C@@H](CCCNC(=N)N)C(=O)N[C@@H](CCCNC(=N)N)C(N)=O)cc1)CCC=C(C)C` [Compound 58], the MIC is 12.5 µg/mL (≈ 16 µM) in data set [1]; 0.39 µg/mL (≈ 0.499 µM) in [2]; 0.39 µg/mL (≈ 0.499 µM) in [3]; 0.39 µg/mL (≈ 0.499 µM) in data set [4]; 0.39 to 3.12 µg/mL (≈ 0.499 to 4 µM) in data set [5]. Besides, the “cell survival rate, mouse fibroblasts NCTC clone 929” value in [8] (CCK-8) was 89.3±0.600. In addition, in data set [9], the “survival rate of mice after two days of treatment” value is 100%. The “pharmacokinetic characteristics in mice” value in [10] is recorded as “excellent pharmacokinetic characteristics”.
Take `C=C[C@](C)(/C=C/c1ccc(OCC(=O)N[C@@H](CCCNC(=N)N)C(=O)N[C@@H](CCCNC(=N)N)C(=O)N[C@@H](CCCNC(=N)N)C(=O)N[C@@H](CCCNC(=N)N)C(=O)OC)cc1)CCC=C(C)C` [Compound 60] (X1-RRRR-OMe): the MIC is 12.5 µg/mL (≈ 13.1 µM) in data set [1]; 0.39 µg/mL (≈ 0.409 µM) in data set [2]; 0.39 µg/mL (≈ 0.409 µM) in [3]; 0.78 µg/mL (≈ 0.818 µM) in data set [4]; 0.39 to 3.12 µg/mL (≈ 0.409 to 3.28 µM) in data set [5]. The “cell survival rate, mouse fibroblasts NCTC clone 929” value in data set [8] (mouse) worked out at 93.7±0.700. In addition, the “HC50 (concentration necessary to lyse 50% rabbit red blood cells)” value in [7] (rabbit, 1 h) is reported as “more than 400 μg/mL”. In data set [11], the “change in MIC value after 15 days of continuous passage” value is recorded as “does not change significantly”. The “reduction of the number of bacteria in the infected mouse cornea” value in data set [12] was 4.48 log.
With `C=C[C@](C)(/C=C/c1ccc(OCC(=O)N[C@@H](CCCNC(=N)N)C(=O)N[C@@H](CCCNC(=N)N)C(=O)N[C@@H](CCCNC(=N)N)C(=O)N[C@@H](CCCNC(=N)N)C(N)=O)cc1)CCC=C(C)C` [Compound 61] (X1-RRRR-NH2), the MIC was 25 µg/mL (≈ 26.6 µM) in [1]; 0.78 µg/mL (≈ 0.831 µM) in [2]; 0.39 µg/mL (≈ 0.416 µM) in data set [3]; 0.78 µg/mL (≈ 0.831 µM) in data set [4]; 0.39 to 3.12 µg/mL (≈ 0.416 to 3.33 µM) in data set [5]. Moreover, in data set [7] (rabbit, 1 h), the “HC50 (concentration necessary to lyse 50% rabbit red blood cells)” value was “more than 400 μg/mL”.
Turning to `C=C[C@](C)(/C=C/c1ccc(OCC(=O)N[C@@H](CCCNC(=N)N)C(=O)N[C@@H](CCCNC(=N)N)C(=O)N[C@@H](CCCNC(=N)N)C(=O)N[C@@H](CCCNC(=N)N)C(=O)N[C@@H](CCCNC(=N)N)C(=O)N[C@@H](CCCNC(=N)N)C(=O)OC)cc1)CCC=C(C)C` [Compound 64], the MIC in data set [1] is 25 µg/mL (≈ 19.8 µM); in data set [2], 1.56 µg/mL (≈ 1.23 µM); in data set [3] it was 1.56 µg/mL (≈ 1.23 µM); in data set [4], 1.56 µg/mL (≈ 1.23 µM); in data set [5], 0.39 to 3.12 µg/mL (≈ 0.308 to 2.47 µM). Further, the “HC50 (concentration necessary to lyse 50% rabbit red blood cells)” value in data set [7] (rabbit, 1 h) is given as “more than 400 μg/mL”.
`CCn1cc(C(=O)O)c(=O)c2cc(F)c(N3CCNCC3)cc21` [norfloxacin, reference compound]: in data set [11], the “change in MIC value after 15 days of continuous passage” value turned out to be 16 fold.
Consider `CN[C@H](CC(C)C)C(=O)N[C@H]1C(=O)N[C@@H](CC(N)=O)C(=O)N[C@H]2C(=O)N[C@H]3C(=O)N[C@H](C(=O)N[C@H](C(=O)O)c4cc(O)cc(O)c4-c4cc3ccc4O)[C@H](O)c3ccc(c(Cl)c3)Oc3cc2cc(c3O[C@@H]2O[C@H](CO)[C@@H](O)[C@H](O)[C@H]2O[C@H]2C[C@](C)(N)[C@H](O)[C@H](C)O2)Oc2ccc(cc2Cl)[C@H]1O` [vancomycin, reference compound], for which, in data set [12], the “reduction of the number of bacteria in the infected mouse cornea” value worked out at 4.16 log. For the same molecule, in data set [9], the “survival rate of mice after two days of treatment” value turned out to be 100%.
